Here are results for three compounds from patent US20140018418A1 (priority 2007, published 2014).

Read-outs that look alike come from different tables or passages of the source.

Test [1] relates to A/Hanoi/UT30408(clone 7)/2005 (H5N1). Details: species or system mice (Balb/c). As to conditions: mouse, in vivo.
The test system of test [2] is H5N1 influenza virus A/Hanoi/30408/2005 (clone 7), oseltamivir sensitive strain. The test is described as follows: microbe, parasite or virus in culture. The format is cell-based.

As for “5-Acetamido-4-guanidino-9-O-octanoyl-2,3,4,5-tetradeoxy-7-O-methyl-D-glycero-D-galacto-non-2-enopyranosoic acid [Compound of Preparation Example 1]”, the “number of mice surviving, Day 10” value in test [1] turned out to be 7.

Turning to `CO[C@@H]([C@@H]1OC(C(=O)O)=C[C@H](NC(=N)N)[C@H]1NC(C)=O)[C@H](O)CO` [Compound of Preparation Example 2, 5-Acetamido-4-guanidino-2,3,4,5-tetradeoxy-7-O-methyl-D-glycero-D-galacto-non-2-enopyranosoic acid], the IC50 in test [2] (Influenza A virus, H5N1, MDCK, read-out: Viral Proliferation Inhibitory Activity (IC50, nM)) is 0.43 nM.

In the case of `CC(=O)N[C@H]1[C@H]([C@H](O)[C@H](O)CO)OC(C(=O)O)=C[C@@H]1N=C(N)N` [Zanamivir, reference compound], the IC50 in test [2] (read-out: Viral Proliferation Inhibitory Activity (IC50)) stood at 3.3 nM.
